Laboratory results published in EP0321273A2, “Thioformamide derivatives” (RHONE POULENC RORER LIMITED, priority 1987, dated 1989).

What was measured:
isolated rat aorta [1] = assay: Test B: activity against contractions induced by high K+ concentrations (60 mM K+) in isolated rat aorta; format: cell-based; conditions: contraction induced by 60 mM K⁺; rat thoracic aorta strips denuded of endothelium, cumulative addition; read-out: concentration in the bath reducing the K⁺-induced contraction by 90%
Experimental: (§1) The test methods used were adapted from those described by Winslow et al [Eur.J.Pharmacol., 131, 219-228 (1986)] and Karaki [J.Pharmacol. Methods, 18, 1-21 (1987)] for differentiating vaso-relaxant activity.
Test B : Activity against contractions induced by high K⁺ concentrations in isolated rat aorta
The test method was as in Test A except that contractions were induced by addition of 60 mM K⁺ to the bathing solution. The cumulative addition of solutions of the test compound was conducted and the concentration in the bath reducing the K⁺-induced contraction by 90% was greater than 30µM for Compounds C, D, E, F, I, J and K, and much greater than 30µM for Compound A. Table I

isolated rat aorta [2] = assay: Test A: activity against contractions induced by low K+ concentrations (20 mM K+) in the isolated rat aorta; format: cell-based; conditions: concentration reducing the contraction induced by 20 mM K⁺ by 90%; rat thoracic aorta strips denuded of endothelium, Krebs solution, cumulative concentrations; read-out: Activity Test A EC₉₀
Experimental: as §1
Test A : Activity against contractions induced by low K⁺ concentrations in the isolated rat aorta
Thoracic aorta was removed from rats and transverse strips, denuded of endothelium, were suspended in a bath containing Krebs solution. The tension was recorded and a contraction induced by addition of 20 mM K⁺ (potassium ion) to the bathing solution. The test compound was added to the bath as a solution in increasing cumulative concentration. The concentration in the bathing solution of the test compound which reduced the K⁺-induced contraction by 90% was determined and expressed in µM as the effective concentration (EC₉₀), given in Table I.

| Compound | IC90 (isolated rat aorta [1]) [µM] | EC90 (isolated rat aorta [2]) [nM] |
| --- | --- | --- |
| CNC(=S)C1(c2ccccc2)CCCCC1=O (racemic) [Compound A, (±)-N-methyl-2-oxo-1-phenylcyclohexanecarbothioamide] | > 30 | 29000 |
| CNC(=S)C1(c2ccc(Cl)c(Cl)c2)CCCCC1=O (racemic) [J, (±)-N-methyl-2-oxo-1-(3,4-dichlorophenyl)cyclohexanecarbothioamide] | > 30 | 400 |
| CNC(=S)C1(c2ccccc2)CCCCC1=NO (racemic) [Compound C, (±)-anti-N-methyl-2-hydroxyimino-1-phenylcyclohexanecarbothioamide] | > 30 | > 30000 |
| CNC(=S)C1(c2ccc3ccccc3c2)CCCCC1=O (racemic) [I, (±)-N-methyl-2-oxo-1-(2-naphthyl)cyclohexanecarbothioamide] | > 30 | 2000 |
| CNC(=S)C1(c2ccccc2)CCCCC1=NOCc1ccc(F)cc1 (racemic) [H, (±)-anti-N-methyl-2-(4-fluorobenzyloxyimino)-1-phenylcyclohexanecarbothioamide] | – | 600 |

Further lines, results first:

| IC90 (isolated rat aorta [1]) [µM] | EC90 (isolated rat aorta [2]) [nM] | Compound |
| --- | --- | --- |
| > 30 | 12000 | CNC(=S)C1(c2ccc(Cl)cc2)CCCCC1=O (racemic) [E, (±)-N-methyl-2-oxo-1-(4-chlorophenyl)cyclohexanecarbothioamide] |
| > 30 | 700 | CNC(=S)C1(c2cccc([N+](=O)[O-])c2)CCCCC1=O (racemic) [Compound K, (±)-N-methyl-2-oxo-1-(3-nitrophenyl)cyclohexanecarbothioamide] |
| > 30 | 20000 | CNC(=S)C1(c2ccccc2)CCCCC1=NOC (racemic) [Compound D, (±)-anti-N-methyl-2-methoxyimino-1-phenylcyclohexanecarbothioamide] |
| > 30 | 900 | CNC(=S)C1(c2cccc(C(F)(F)F)c2)CCCCC1=O (racemic) [F, (±)-N-methyl-2-oxo-1-(3-trifluoromethylphenyl)cyclohexanecarbothioamide] |
